# Measurements taken from patent US20260048047A1, “SMALL-MOLECULE ACTIVATORS OF MYCOBACTERIUM TUBERCULOSIS ADENYLYL CYCLASE” (priority 2022, published 2026).
# Tested on: M. tuberculosis
# Assay: Extracellular activity against M. tuberculosis in cholesterol media (Alamar Blue reduction assay)
# Format: cell-based, Mycobacterium tuberculosis
# Conditions: Mycobacterium tuberculosis, 240 h, 7H12-Cholesterol media, 10 days; read-out: Cholesterol broth: alamar blue--EC50
row,SMILES,EC50
1,"Cc1nonc1CC(=O)N1CCC2(CC1)CC(n1nnc(-c3ccc(F)cc3)n1)C2 [Compound 247, 1-(2-(5-(4-fluorophenyl)-2H-tetrazol-2-yl)-7-azaspiro[3.5]nonan-7-yl)-2-(4-methyl-1,2,5-oxadiazol-3-yl)ethan-1-one]",1250 nM
2,"Cc1nonc1CC(=O)N1CCC2(CC1)CC(c1nc(-c3ccc(Cl)c(Cl)c3)no1)C2 [Compound 230, 1-(2-(3-(3,4-dichlorophenyl)-1,2,4-oxadiazol-5-yl)-7-azaspiro[3.5]nonan-7-yl)-2-(4-methyl-1,2,5-oxadiazol-3-yl)ethan-1-one]",176 nM
3,"Cc1nonc1CC(=O)N1CCC2(CC1)CC(c1nc(C3CCC(F)(F)CC3)no1)C2 [Compound 231, 1-(2-(3-(4,4-difluorocyclohexyl)-1,2,4-oxadiazol-5-yl)-7-azaspiro[3.5]nonan-7-yl)-2-(4-methyl-1,2,5-oxadiazol-3-yl)ethan-1-one]",> 10000 nM
4,"Cc1nonc1CC(=O)N1CCC(c2nc(C3(C)COC3)no2)CC1 [Compound 85, 2-(4-methyl-1,2,5-oxadiazol-3-yl)-1-(4-(3-(3-methyloxetan-3-yl)-1,2,4-oxadiazol-5-yl)piperidin-1-yl)ethan-1-one]",> 10000 nM
5,"Cc1nonc1CC(=O)N1CCC(c2noc(C34CC(C)(C3)C4)n2)CC1 [Compound 90, 2-(4-methyl-1,2,5-oxadiazol-3-yl)-1-(4-(5-(3-methylbicyclo[1.1.1]pentan-1-yl)-1,2,4-oxadiazol-3-yl)piperidin-1-yl)ethan-1-one]",2050 nM
6,"Cc1nonc1CC(=O)N1CCC(n2nnc(-c3ccccc3F)n2)CC1 [Compound 147, 1-(4-(5-(2-fluorophenyl)-2H-tetrazol-2-yl)piperidin-1-yl)-2-(4-methyl-1,2,5-oxadiazol-3-yl)ethan-1-one]",1450 nM
7,"Cc1noc(CC(=O)N2CCC(c3nc(C4C[C@@H](C)C[C@@H](C)C4)no3)CC2)n1 (stereo partly drawn) [Compound 31, 1-(4-(3-((3R,5S)-3,5-dimethylcyclohexyl)-1,2,4-oxadiazol-5-yl)piperidin-1-yl)-2-(3-methyl-1,2,4-oxadiazol-5-yl)ethan-1-one]",> 25000 nM
8,"Cc1noc(CC(=O)N2CCC(c3nc(C4CCCC4)no3)CC2)n1 [Compound 20, 1-(4-(3-cyclopentyl-1,2,4-oxadiazol-5-yl)piperidin-1-yl)-2-(3-methyl-1,2,4-oxadiazol-5-yl)ethan-1-one]",> 25000 nM
9,"CC(C)c1noc(CC(=O)N2CCC(c3nc(-c4ccc(F)cc4)no3)CC2)n1 [Compound 6, 1-(4-(3-(4-fluorophenyl)-1,2,4-oxadiazol-5-yl)piperidin-1-yl)-2-(3-isopropyl-1,2,4-oxadiazol-5-yl)ethan-1-one]",2980 nM
10,"Cc1nocc1CC(=O)N1CCC(c2nc(C3CCCCC3)no2)CC1 [Compound 55, 1-(4-(3-cyclohexyl-1,2,4-oxadiazol-5-yl)piperidin-1-yl)-2-(3-methylisoxazol-4-yl)ethan-1-one]",> 25000 nM
11,"Cc1noc(CC(=O)N2CCC(c3nc(-c4ccc(Cl)c(Cl)c4)no3)CC2)n1 [Compound 33, 1-(4-(3-(3,4-dichlorophenyl)-1,2,4-oxadiazol-5-yl)piperidin-1-yl)-2-(3-methyl-1,2,4-oxadiazol-5-yl)ethan-1-one]",140 nM
12,"Cc1noc(CC(=O)N2CC3CC2CC3c2nc(-c3ccc(F)c(F)c3)no2)n1 (stereo not drawn) [Compound 192, 1-(5-(3-(3,4-difluorophenyl)-1,2,4-oxadiazol-5-yl)-2-azabicyclo[2.2.1]heptan-2-yl)-2-(3-methyl-1,2,4-oxadiazol-5-yl)ethan-1-one]",> 10000 nM
13,Cc1noc(CC(=O)N2CCC(c3nc(-c4ccc(Cl)c(OC(F)(F)F)c4)no3)CC2)n1 [Compound 38],1050 nM
14,"Cc1nnn(C2CCN(C(=O)Cc3nonc3C)CC2)n1 [Compound 81, 2-(4-methyl-1,2,5-oxadiazol-3-yl)-1-(4-(5-methyl-2H-tetrazol-2-yl)piperidin-1-yl)ethan-1-one]",> 10000 nM
15,"Cc1nonc1CC(=O)N1CCC(c2nc(-c3ccccc3OC(F)(F)F)no2)CC1 [Compound 104, 2-(4-methyl-1,2,5-oxadiazol-3-yl)-1-(4-(3-(2-(trifluoromethoxy)phenyl)-1,2,4-oxadiazol-5-yl)piperidin-1-yl)ethan-1-one]",2960 nM
16,"Cc1cncnc1CC(=O)N1CCC(c2nc(-c3ccc(Cl)c(Cl)c3)no2)CC1 [Compound 8, 1-(4-(3-(3,4-dichlorophenyl)-1,2,4-oxadiazol-5-yl)piperidin-1-yl)-2-(5-methylpyrimidin-4-yl)ethan-1-one]",479 nM
17,"Cn1ncnc1CC(=O)N1CCC(n2nnc(-c3ccc(Cl)c(F)c3)n2)CC1 [Compound 177, 1-(4-(5-(4-chloro-3-fluorophenyl)-2H-tetrazol-2-yl)piperidin-1-yl)-2-(1-methyl-1H-1,2,4-triazol-5-yl)ethan-1-one]",170 nM
18,Cc1nonc1CC(=O)N1CCC(c2nc(-c3ccc(F)c(C(F)(F)F)c3)no2)CC1 [Compound 124],334 nM

row,SMILES,EC50
1,"Cc1conc1CC(=O)N1CCC(c2nc(-c3ccc(Cl)c(Cl)c3)no2)CC1 [Compound 10, 1-(4-(3-(3,4-dichlorophenyl)-1,2,4-oxadiazol-5-yl)piperidin-1-yl)-2-(4-methylisoxazol-3-yl)ethan-1-one]",284 nM
2,"Cc1noc(CC(=O)N2CCC(c3nc(C4CCCC5CC54)no3)CC2)n1 (stereo not drawn) [Compound 22, 1-(4-(3-(bicyclo[4.1.0]heptan-2-yl)-1,2,4-oxadiazol-5-yl)piperidin-1-yl)-2-(3-methyl-1,2,4-oxadiazol-5-yl)ethan-1-one]",890 nM
3,"Cc1noc(CC(=O)N2CC3CC(C2)C3c2nc(-c3ccc(Cl)c(Cl)c3)no2)n1 (stereo not drawn) [Compound 206, 1-(6-(3-(3,4-dichlorophenyl)-1,2,4-oxadiazol-5-yl)-3-azabicyclo[3.1.1]heptan-3-yl)-2-(3-methyl-1,2,4-oxadiazol-5-yl)ethan-1-one]",> 10000 nM
4,"Cc1noc(CC(=O)N2CCC(c3nc(C4CCC(C)(C)C4)no3)CC2)n1 (stereo not drawn) [Compound 29, 1-(4-(3-(3,3-dimethylcyclopentyl)-1,2,4-oxadiazol-5-yl)piperidin-1-yl)-2-(3-methyl-1,2,4-oxadiazol-5-yl)ethan-1-one]",3730 nM
5,"Cc1noc(CC(=O)N2CCC(c3nc(-c4ccc(F)c(OC(F)(F)F)c4)no3)CC2)n1 [Compound 48, 1-(4-(3-(4-fluoro-3-(trifluoromethoxy)phenyl)-1,2,4-oxadiazol-5-yl)piperidin-1-yl)-2-(3-methyl-1,2,4-oxadiazol-5-yl)ethan-1-one]",730 nM
6,Cc1nonc1CC(=O)N1CCC(c2nc(-c3ccc(C(F)(F)F)c(F)c3)no2)CC1 [Compound 117],278 nM
7,"Cc1noc(CC(=O)N2CCC(c3nc(C4CCC(C)(C)CC4)no3)CC2)n1 [Compound 30, 1-(4-(3-(4,4-dimethylcyclohexyl)-1,2,4-oxadiazol-5-yl)piperidin-1-yl)-2-(3-methyl-1,2,4-oxadiazol-5-yl)ethan-1-one]",1140 nM
8,"Cc1nonc1CC(=O)N1CC2CC(C1)C2c1nc(-c2ccc(F)c(F)c2)no1 (stereo not drawn) [Compound 214, 1-(6-(3-(3,4-difluorophenyl)-1,2,4-oxadiazol-5-yl)-3-azabicyclo[3.1.1]heptan-3-yl)-2-(4-methyl-1,2,5-oxadiazol-3-yl)ethan-1-one]",5050 nM
9,"Cc1nocc1CC(=O)N1CCC(n2nnc(C3CCCCC3)n2)CC1 [Compound 56, 1-(4-(5-cyclohexyl-2H-tetrazol-2-yl)piperidin-1-yl)-2-(3-methylisoxazol-4-yl)ethan-1-one]",> 25000 nM
10,"Cc1nonc1CC(=O)N1CC2CC(C1)C2c1nc(-c2ccc(Cl)c(Cl)c2)no1 (stereo not drawn) [Compound 212, 1-(6-(3-(3,4-dichlorophenyl)-1,2,4-oxadiazol-5-yl)-3-azabicyclo[3.1.1]heptan-3-yl)-2-(4-methyl-1,2,5-oxadiazol-3-yl)ethan-1-one]",5010 nM
11,"Cn1cnnc1CC(=O)N1CCC(c2nc(-c3ccc(F)cc3)no2)CC1 [Compound 155, 1-(4-(3-(4-fluorophenyl)-1,2,4-oxadiazol-5-yl)piperidin-1-yl)-2-(4-methyl-4H-1,2,4-triazol-3-yl)ethan-1-one]",> 10000 nM
12,"Cc1cccc(OC2CCN(C(=O)Cc3nonc3C)CC2)c1C [Compound 254, 1-(4-(2,3-dimethylphenoxy)piperidin-1-yl)-2-(4-methyl-1,2,5-oxadiazol-3-yl)ethan-1-one]",> 10000 nM
13,"Cc1noc(CC(=O)N2CCC(n3nnc(-c4ccc(Cl)cc4)n3)CC2)n1 [Compound 35, 1-(4-(5-(4-chlorophenyl)-2H-tetrazol-2-yl)piperidin-1-yl)-2-(3-methyl-1,2,4-oxadiazol-5-yl)ethan-1-one]",1080 nM
14,"Cn1ncnc1CC(=O)N1CCC(c2nc(-c3ccc(Cl)cc3F)no2)CC1 [Compound 178, 1-(4-(3-(4-chloro-2-fluorophenyl)-1,2,4-oxadiazol-5-yl)piperidin-1-yl)-2-(1-methyl-1H-1,2,4-triazol-5-yl)ethan-1-one]",200 nM
15,"Cc1noc(CC(=O)N2CCC(c3nc(-c4ccc(F)cc4)co3)CC2)n1 [Compound 52, 1-(4-(4-(4-fluorophenyl)oxazol-2-yl)piperidin-1-yl)-2-(3-methyl-1,2,4-oxadiazol-5-yl)ethan-1-one]",> 10000 nM
16,"Cc1nonc1CC(=O)N1CCC(c2nc(C3CCC(F)(F)CC3)no2)CC1 [Compound 110, 1-(4-(3-(4,4-difluorocyclohexyl)-1,2,4-oxadiazol-5-yl)piperidin-1-yl)-2-(4-methyl-1,2,5-oxadiazol-3-yl)ethan-1-one]",969 nM
17,"Cc1nc(CC(=O)N2CCC(c3nc(-c4ccc(F)cc4)no3)CC2)no1 [Compound 12, 1-(4-(3-(4-fluorophenyl)-1,2,4-oxadiazol-5-yl)piperidin-1-yl)-2-(5-methyl-1,2,4-oxadiazol-3-yl)ethan-1-one]",> 10000 nM
18,"Cc1noc(CC(=O)N2CC3CC2CC3c2nc(C3CCC(F)(F)CC3)no2)n1 (stereo not drawn) [Compound 191, 1-(5-(3-(4,4-difluorocyclohexyl)-1,2,4-oxadiazol-5-yl)-2-azabicyclo[2.2.1]heptan-2-yl)-2-(3-methyl-1,2,4-oxadiazol-5-yl)ethan-1-one]",> 10000 nM
